The subject of data set [1] is MCF-7 cells. The experiment in a line: [14C]-6-deoxy-6-fluoro-D-fructose uptake in MCF-7 cells. The data set is classed as cell-based, human. The conditions noted are these: for uptake time course: 90 minute incubation, MCF-7, corrected for non-mediated hexose uptake. The method, then: (§1) Both MCF-7 and MDA-MB-231 cells (Gifts from Dr. David Murray, Cross Cancer Institute, Edmonton, Canada) were grown in a 37° C., 5% CO2 incubator, in Gibco® DMEM-F12 supplemented with 15 mM HEPES, L-glutamine, 10% fetal bovine serum and 1% penicillin/streptomycin with media renewal every 2 to 3 days. For cell flux studies, cells were grown to confluence in 12-well plates with media renewal every two days. Two hours before performing the flux experiment, the media was removed, and the cells washed twice with phosphate buffered saline solution (PBS). Glucose-free Krebs-Ringer solution was added to the wells (120 mM NaCl, 25 mM NaHCO3, 4 mM KCl, 1.2 mM KH2PO4, 2.5 mM MgSO4, 70 uM CaCl2, pH 7.4) to deprive the cells of nutrients and to set up a zero-trans experiment. After two hours, cells were removed from the incubator, and the respective experiments were performed. Radioactive “Hot” flux solutions were made up using the Krebs-Ringer solution previously mentioned and radiolabelled [^14C]-D-glucose (Amersham), [^14C]-D-fructose (Moravek Biochemicals), or [^14C]6FDF (proprietary) at a specific activity of approximately 1 μCi/ml. For determining background levels of radioactivity, a sodium reduced Krebs solution was made (70 mM NaCl, 25 mM NaHCO3, 4 mM KCl, 1.2 mM KH2PO4, 2.5 mM MgSO4, 70 μM CaCl2, pH 7.4) with the addition of either 100 mM D-glucose or 100 mM D-fructose to outcompete the binding sites of the specific GLUT transporters under examination. […] Three 150 μl samples from each well were placed into scintillation counter vials, and 4 ml of ScintiSafe™ liquid scintillation fluid (Fisher) was added. The vials were then placed in a Beckman™ LS 6500 multi-purpose liquid scintillation counter to be quantified. All counts were then normalized to standards and corrected for background accumulation of isotope.
(§2) All uptake values were corrected for their respective adhering extracellular substrate, and Ki values were determined using non-linear regression in GraphPad Prism™ 5 (GraphPad Software, Inc., La Jolla, Calif.). ANOVA analysis was also performed in GraphPad Prism™ 5.

Data set [2] has as its system MDA-MB-231 cells. The experiment in a line: [14C]-6-deoxy-6-fluoro-D-fructose uptake in MDA-MB-231 cells. The class given is cell-based, human. The conditions noted are these: 90 minute incubation, MDA-MB-231, corrected for non-mediated hexose uptake. The method, then: Both MCF-7 and MDA-MB-231 cells (Gifts from Dr. David Murray, Cross Cancer Institute, Edmonton, Canada) were grown in a 37° C., 5% CO2 incubator, in Gibco® DMEM-F12 supplemented with 15 mM HEPES, L-glutamine, 10% fetal bovine serum and 1% penicillin/streptomycin with media renewal every 2 to 3 days. For cell flux studies, cells were grown to confluence in 12-well plates with media renewal every two days. Two hours before performing the flux experiment, the media was removed, and the cells washed twice with phosphate buffered saline solution (PBS). […] For determining background levels of radioactivity, a sodium reduced Krebs solution was made (70 mM NaCl, 25 mM NaHCO3, 4 mM KCl, 1.2 mM KH2PO4, 2.5 mM MgSO4, 70 μM CaCl2, pH 7.4) with the addition of either 100 mM D-glucose or 100 mM D-fructose to outcompete the binding sites of the specific GLUT transporters under examination. […] The vials were then placed in a Beckman™ LS 6500 multi-purpose liquid scintillation counter to be quantified. […]
(§3) All uptake values were corrected for their respective adhering extracellular substrate, and Ki values were determined using non-linear regression in GraphPad Prism™ 5 (GraphPad Software, Inc., La Jolla, Calif.). […]

Data set [3] concerns MCF-7 cells. Description: Inhibition of [14C]-D-glucose transport (hexose flux) in MCF-7 cells. The conditions noted are these: for Ki: [14C]-D-glucose. The data set is classed as cell-based, human. The method, then: (§4) Both MCF-7 and MDA-MB-231 cells (Gifts from Dr. David Murray, Cross Cancer Institute, Edmonton, Canada) were grown in a 37° C., 5% CO2 incubator, in Gibco® DMEM-F12 supplemented with 15 mM HEPES, L-glutamine, 10% fetal bovine serum and 1% penicillin/streptomycin with media renewal every 2 to 3 days. For cell flux studies, cells were grown to confluence in 12-well plates with media renewal every two days. Two hours before performing the flux experiment, the media was removed, and the cells washed twice with phosphate buffered saline solution (PBS). Glucose-free Krebs-Ringer solution was added to the wells (120 mM NaCl, 25 mM NaHCO3, 4 mM KCl, 1.2 mM KH2PO4, 2.5 mM MgSO4, 70 uM CaCl2, pH 7.4) to deprive the cells of nutrients and to set up a zero-trans experiment. After two hours, cells were removed from the incubator, and the respective experiments were performed. Radioactive “Hot” flux solutions were made up using the Krebs-Ringer solution previously mentioned and radiolabelled [^14C]-D-glucose (Amersham), [^14C]-D-fructose (Moravek Biochemicals), or [^14C]6FDF (proprietary) at a specific activity of approximately 1 μCi/ml. For determining background levels of radioactivity, a sodium reduced Krebs solution was made (70 mM NaCl, 25 mM NaHCO3, 4 mM KCl, 1.2 mM KH2PO4, 2.5 mM MgSO4, 70 μM CaCl2, pH 7.4) with the addition of either 100 mM D-glucose or 100 mM D-fructose to outcompete the binding sites of the specific GLUT transporters under examination. After applying the test flux solution, incubations lasted for 25 minutes, where the cells were then rinsed twice with ice-cold Krebs-Ringer to stop the transport, and then lysed using 500 μl 5% trichloracetic acid and left to sit on a shaker bed overnight. […] The vials were then placed in a Beckman™ LS 6500 multi-purpose liquid scintillation counter to be quantified. […]
as §3

The test system of data set [4] is MDA-MB-231 cells. The experiment in a line: Inhibition of [14C]-D-glucose transport (hexose flux) in MDA-MB-231 cells. The class given is cell-based, human. The conditions noted are these: for Ki: [14C]-D-glucose. The method, then:
as §4, §3

Data set [5] relates to MCF-7 cells. The experiment in a line: Inhibition of [14C]-D-fructose transport (hexose flux) in MCF-7 cells. The data set is classed as cell-based, human. As to the method:
as §1, §2

For data set [6], the system named is MDA-MB-231 cells. The experiment in a line: Inhibition of [14C]-D-fructose transport (hexose flux) in MDA-MB-231 cells. The class given is cell-based, human. As to the method:
as §1, §2

The nature of another data set: Storage stability. The class given is physicochemical. To be noted: prolonged storage.
Setting [7] is: listed as [^14C]-labelled 6-deoxy-6-fluoro-D-fructose.
Where [8] appears, read: increasing concentrations, MCF-7.
[9] abbreviates: increasing concentrations, MDA-MB-231.

A word on the Ki: it is a measure of affinity in units of concentration, obtained from inhibition or displacement. Lower therefore signals tighter binding.

Consider `O=C(CO)[C@@H](O)[C@H](O)[C@H](O)CF` [[^14C]-6-deoxy-6-fluoro-D-fructose], for which the uptake time course result is “Near linear uptake” in the data set with MCF-7 cells [1], “Near linear uptake over time” in the data set on MCF-7 cells [1] (setting [7]), “Near linear uptake” in the data set on MDA-MB-231 cells [2] and “Near linear uptake over time” in the data set on MDA-MB-231 cells [2] (setting [7]). In addition, the “increase in uptake compared to [14C]-D-fructose” value with MCF-7 cells [1] (MCF-7, one hour incubation, 2-way ANOVA p=0.0028) is on record as “almost two-fold increase”.
`OCC1(O)O[C@H](CF)[C@@H](O)[C@@H]1O` (stereo partly drawn) [6-deoxy-6-fluoro-D-fructose]: the Ki is around 916 µM in the data set on MCF-7 cells [3] (25 minute incubation, MCF-7, n=3); around 916 µM with MCF-7 cells [3] (MCF-7 (FIG. 7A)); 6210 ± 2860 µM with MDA-MB-231 cells [4] (25 minute incubation, MDA-MB-231, n=3); 6210 ± 2860 µM in the data set with MDA-MB-231 cells [4] (MDA-MB-231 (FIG. 7B)); 154 ± 54 µM in the data set on MCF-7 cells [5] ([14C]-D-fructose, 25 minute incubation, MCF-7, n=3); 330 ± 153 µM in the data set with MDA-MB-231 cells [6] ([14C]-D-fructose, 25 minute incubation, MDA-MB-231, n=3). The “inhibition of [14C]-D-glucose transport, in words” value in the data set on MCF-7 cells [3] (setting [8]) and with MDA-MB-231 cells [4] (setting [9]) was “dose dependent inhibition” throughout. Moreover, the “inhibition of [14C]-D-fructose transport, in words” value in the data set with MCF-7 cells [5] (setting [8]) and in the data set with MDA-MB-231 cells [6] (setting [9]) was “dose dependent inhibition” throughout. Further, in the data set “Storage stability”, the stability during storage entry is recorded as “not stable during prolonged storage”.
Regarding `C=C1[C@@H](C)[C@H]2[C@H](Cc3ccccc3)NC(=O)[C@]23OC(=O)/C=C/[C@H](O)CCC[C@@H](C)C/C=C/[C@H]3[C@@H]1O` [CB, cytochalasin B, reference compound], the “effect on fructose transport” value in the data set with MCF-7 cells [5] (100 μM CB, [14C]-D-fructose, 60 minutes, MCF-7) is on record as “no significant transport difference”. In addition, the “share of total fructose flux inhibited (GLUT2-mediated)” value in the data set on MCF-7 cells [5] (100 μM CB, [14C]-D-fructose, 90 minute flux, MCF-7) was “about 12%”; with MDA-MB-231 cells [6] (100 μM CB, [14C]-D-fructose, 90 minute flux, MDA-MB-231) it was “approximately 30%”. Also, the “effect on 6-deoxy-6-fluoro-D-fructose transport” value in the data set on MCF-7 cells [1] (100 μM CB, [14C]-6-deoxy-6-fluoro-D-fructose, 60 minutes, MCF-7) is “no significant transport difference”.

(Values after patent US8293208B2, “Fluorinated fructose derivatives for PET imaging” (The Governors of the University of Alberta, priority 2009, dated 2012).)
